Measurements as given in patent US6677466B1, “Method for stabilizing hydrogen peroxide” (DSM Fine Chemicals Austria NFG GmbH & Co KG, priority 1999, dated 2004).

Assay: O2 evolution from RuO2.xH2O-catalysed decomposition of H2O2 with stabilizer
Type: physicochemical
Experimental: A 50% strength aqueous solution of H2O2 (304 mg; 4.46 mmol) was added to 454 mg (4.46 mmol) of methyl pyruvate and to 535 mg (4.46 mmol) of glyoxylic methyl ester methyl hemiacetal, respectively. In the case of methyl pyruvate, a marked evolution of heat was discovered during the addition. After one hour, the H2O2/α-keto ester mixture was mixed with 1 ml of solvent and added to a suspension of 2.5 mg of RuO2.xH2O catalyst (Aldrich) in 4 ml of solvent. The suspension was introduced into a 50 ml flask which was maintained at room temperature in a water bath.
As a comparison, a suspension of 2.5 mg of RuO2.xH2O catalyst (Aldrich) in 4 ml of solvent was combined with a 50% strength aqueous solution of H2O2 (304 mg; 4.46 mmol) and 1 ml of solvent without stabilizer.
The amount of oxygen which […] the decomposition of the hydrogen peroxide was determined as a function of time using a Brooks meter, which permitted measurement of the gas flow and of the total amount of evolved gas.
The amount of oxygen is defined here as % of the maximum amount to be calculated on the basis of stoichiometry.

## COC(=O)C(C)=O [methyl pyruvate]
solv. acetic acid, t 1 min
  O2 evolution V(O2) (Vmax(O2)*100%): 0%
solv. acetic acid, t 2 min
  O2 evolution V(O2) (Vmax(O2)*100%): 0%
solv. acetic acid, t 5 min
  O2 evolution V(O2) (Vmax(O2)*100%): 2%
solv. acetic acid, t 10 min
  O2 evolution V(O2) (Vmax(O2)*100%): 4%
solv. acetic acid, t 15 min
  O2 evolution V(O2) (Vmax(O2)*100%): 4%
solv. acetic acid, t 20 min
  O2 evolution V(O2) (Vmax(O2)*100%): 4%
solv. acetic acid, t 25 min
  O2 evolution V(O2) (Vmax(O2)*100%): 4%
solv. acetic acid, t 30 min
  O2 evolution V(O2) (Vmax(O2)*100%): 4%
solv. acetic acid, t 35 min
  O2 evolution V(O2) (Vmax(O2)*100%): 4%
solv. acetic acid, t 40 min
  O2 evolution V(O2) (Vmax(O2)*100%): 4%
solv. acetone, t 1 min
  O2 evolution V(O2) (Vmax(O2)*100%): 10%
solv. acetone, t 2 min
  O2 evolution V(O2) (Vmax(O2)*100%): 20%
solv. acetone, t 5 min
  O2 evolution V(O2) (Vmax(O2)*100%): 29%
solv. acetone, t 10 min
  O2 evolution V(O2) (Vmax(O2)*100%): 29%
solv. acetone, t 15 min
  O2 evolution V(O2) (Vmax(O2)*100%): 29%
solv. acetone, t 20 min
  O2 evolution V(O2) (Vmax(O2)*100%): 29%
solv. acetone, t 25 min
  O2 evolution V(O2) (Vmax(O2)*100%): 29%
solv. acetone, t 30 min
  O2 evolution V(O2) (Vmax(O2)*100%): 29%
solv. acetone, t 35 min
  O2 evolution V(O2) (Vmax(O2)*100%): 29%
solv. acetone, t 40 min
  O2 evolution V(O2) (Vmax(O2)*100%): 29%
solv. acetonitrile, t 1 min
  O2 evolution V(O2) (Vmax(O2)*100%): 9%
solv. acetonitrile, t 2 min
  O2 evolution V(O2) (Vmax(O2)*100%): 18%
solv. acetonitrile, t 5 min
  O2 evolution V(O2) (Vmax(O2)*100%): 30%
solv. acetonitrile, t 10 min
  O2 evolution V(O2) (Vmax(O2)*100%): 40%
solv. acetonitrile, t 15 min
  O2 evolution V(O2) (Vmax(O2)*100%): 47%
solv. acetonitrile, t 20 min
  O2 evolution V(O2) (Vmax(O2)*100%): 51%
solv. acetonitrile, t 25 min
  O2 evolution V(O2) (Vmax(O2)*100%): 53%
solv. acetonitrile, t 30 min
  O2 evolution V(O2) (Vmax(O2)*100%): 53%
solv. acetonitrile, t 35 min
  O2 evolution V(O2) (Vmax(O2)*100%): 53%
solv. acetonitrile, t 40 min
  O2 evolution V(O2) (Vmax(O2)*100%): 53%
solv. ethyl acetate, t 1 min
  O2 evolution V(O2) (Vmax(O2)*100%): 8%
solv. ethyl acetate, t 2 min
  O2 evolution V(O2) (Vmax(O2)*100%): 12%
solv. ethyl acetate, t 5 min
  O2 evolution V(O2) (Vmax(O2)*100%): 20%
solv. ethyl acetate, t 10 min
  O2 evolution V(O2) (Vmax(O2)*100%): 29%
solv. ethyl acetate, t 15 min
  O2 evolution V(O2) (Vmax(O2)*100%): 32%
solv. ethyl acetate, t 20 min
  O2 evolution V(O2) (Vmax(O2)*100%): 37%
solv. ethyl acetate, t 25 min
  O2 evolution V(O2) (Vmax(O2)*100%): 40%
solv. ethyl acetate, t 30 min
  O2 evolution V(O2) (Vmax(O2)*100%): 42%
solv. ethyl acetate, t 35 min
  O2 evolution V(O2) (Vmax(O2)*100%): 47%
solv. ethyl acetate, t 40 min
  O2 evolution V(O2) (Vmax(O2)*100%): 50%
solv. methanol, t 1 min
  O2 evolution V(O2) (Vmax(O2)*100%): 10%
solv. methanol, t 2 min
  O2 evolution V(O2) (Vmax(O2)*100%): 19%
solv. methanol, t 5 min
  O2 evolution V(O2) (Vmax(O2)*100%): 32%
solv. methanol, t 10 min
  O2 evolution V(O2) (Vmax(O2)*100%): 43%
solv. methanol, t 15 min
  O2 evolution V(O2) (Vmax(O2)*100%): 49%
solv. methanol, t 20 min
  O2 evolution V(O2) (Vmax(O2)*100%): 52%
solv. methanol, t 25 min
  O2 evolution V(O2) (Vmax(O2)*100%): 53%
solv. methanol, t 30 min
  O2 evolution V(O2) (Vmax(O2)*100%): 53%
solv. methanol, t 35 min
  O2 evolution V(O2) (Vmax(O2)*100%): 53%
solv. methanol, t 40 min
  O2 evolution V(O2) (Vmax(O2)*100%): 53%
solv. t-butanol, t 1 min
  O2 evolution V(O2) (Vmax(O2)*100%): 2%
solv. t-butanol, t 2 min
  O2 evolution V(O2) (Vmax(O2)*100%): 5%
solv. t-butanol, t 5 min
  O2 evolution V(O2) (Vmax(O2)*100%): 10%
solv. t-butanol, t 10 min
  O2 evolution V(O2) (Vmax(O2)*100%): 18%
solv. t-butanol, t 15 min
  O2 evolution V(O2) (Vmax(O2)*100%): 21%
solv. t-butanol, t 20 min
  O2 evolution V(O2) (Vmax(O2)*100%): 23%
solv. t-butanol, t 25 min
  O2 evolution V(O2) (Vmax(O2)*100%): 25%
solv. t-butanol, t 30 min
  O2 evolution V(O2) (Vmax(O2)*100%): 25%
solv. t-butanol, t 35 min
  O2 evolution V(O2) (Vmax(O2)*100%): 25%
solv. t-butanol, t 40 min
  O2 evolution V(O2) (Vmax(O2)*100%): 25%
solv. water, t 1 min
  O2 evolution V(O2) (Vmax(O2)*100%): 9%
solv. water, t 2 min
  O2 evolution V(O2) (Vmax(O2)*100%): 17%
solv. water, t 5 min
  O2 evolution V(O2) (Vmax(O2)*100%): 30%
solv. water, t 10 min
  O2 evolution V(O2) (Vmax(O2)*100%): 40%
solv. water, t 15 min
  O2 evolution V(O2) (Vmax(O2)*100%): 48%
solv. water, t 20 min
  O2 evolution V(O2) (Vmax(O2)*100%): 51%
solv. water, t 25 min
  O2 evolution V(O2) (Vmax(O2)*100%): 55%
solv. water, t 30 min
  O2 evolution V(O2) (Vmax(O2)*100%): 55%
solv. water, t 35 min
  O2 evolution V(O2) (Vmax(O2)*100%): 55%
solv. water, t 40 min
  O2 evolution V(O2) (Vmax(O2)*100%): 55%
